Laboratory results published in patent US20120058989A1, “ANTIBACTERIAL FLUOROQUINOLONE ANALOGS” (Achaogen, Inc., priority 2008, published 2012).
Values after ≈ are worked out from the molar mass of the structure shown. Read-outs that look alike come from different tables or passages of the source.

Assays:
Assay in all cases: MIC, CLSI broth microdilution
Type in all cases: cell-based
[1] = test system: S. aureus ASAU1033 (Fluoroquinolone-resistant); settings: Table 3
Procedure, shortened: (§1)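 CLSI M7-A7 broth microdilution in Mueller Hinton Broth using two-fold compound serial dilutions. Inoculum was prepared from the previous day's agar colonies at a final 5×10^5 CFU/mL. Plates were incubated at 35° C for 20 hours in ambient air.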

[2] = test system: S. aureus ASAU1031 (Fluoroquinolone-resistant); settings: for MIC: Staphylococcus aureus
Procedure, shortened: as §1

[3] = test system: E. coli AECO001 (Fluoroquinolone susceptible, ATCC25922); settings: for MIC: Escherichia coli
Procedure, shortened: as §1

[4] = test system: S. aureus ASAU001 (Fluoroquinolone-susceptible, ATCC29213); settings: for MIC: Staphylococcus aureus
Procedure, shortened: as §1

[5] = test system: P. aeruginosa APAE001 (Fluoroquinolone-susceptible, ATCC27853); settings: for MIC: Pseudomonas aeruginosa
Procedure, shortened: as §1

[6] = test system: S. pneumoniae ASPN1027 (Fluoroquinolone-resistant); settings: for MIC: Streptococcus pneumoniae
Procedure, shortened: as §1

[7] = test system: S. pneumoniae ASPN002 (Fluoroquinolone-susceptible, ATCC10813); settings: Table 3
Procedure, shortened: as §1

[8] = test system: S. aureus ASAU002 (Fluoroquinolone-susceptible, ATCC33591 (MRSA)); settings: Table 3
Procedure, shortened: as §1

[9] = test system: E. coli AECO002 (Fluoroquinolone susceptible); settings: Table 3
Procedure, shortened: as §1

[10] = test system: A. baumannii AABA1065 (Fluoroquinolone-susceptible); settings: for MIC: Acinetobacter baumannii
Procedure, shortened: as §1

[11] = test system: E. coli AECO066 (Fluoroquinolone-resistant); settings: for MIC: Escherichia coli
Procedure, shortened: as §1

[12] = test system: A. baumannii AABA1020 (Fluoroquinolone-resistant); settings: Table 3
Procedure, shortened: as §1

[13] = test system: S. pneumoniae ASPN1018 (Fluoroquinolone-resistant); settings: Table 3
Procedure, shortened: as §1

[14] = test system: P. aeruginosa APAE054 (Fluoroquinolone-resistant); settings: for MIC: Pseudomonas aeruginosa
Procedure, shortened: as §1

[15] = test system: E. coli AECO086 (Fluoroquinolone-resistant); settings: Table 3
Procedure, shortened: as §1

[16] = test system: S. pneumoniae ASPN001 (Fluoroquinolone-susceptible, ATCC49619); settings: for MIC: Streptococcus pneumoniae
Procedure, shortened: as §1

[17] = test system: P. aeruginosa APAE002 (Fluoroquinolone susceptible); settings: Table 3
Procedure, shortened: as §1

[18] = test system: A. baumannii AABA1009 (Fluoroquinolone-resistant); settings: for MIC AABA 1009: Table 2
Procedure, shortened: as §1

NC1CCN2c3c(F)cc4c(=O)c(C(=O)O)cn(C5CC5)c4c3CCCC12.O=C(O)C(F)(F)F [16/18, (7aR,8R)-8-Amino-4-cyclopropyl-12-fluoro-1-oxo-4,5,6,7,7a,8,9,10-octahydro-1H-pyrrolo[1′,2′:1,7]azepino[2,3-h]quinoline-2-carboxylic acid trifluoroacetate]
MIC ASAU1033 [1]: C (MIC's of 2.0 μg/mL to 8.0 μg/mL = C) | MIC ASAU 1031 ([2]; Table 2): B (MIC's of greater than 1.0 μg/mL to 8.0 μg/mL = B) | MIC ASAU 1031 ([2]; Table 3): A (MIC's of less than 1.0 = A) | MIC AECO 001 ([3]; Table 2, 35° C., 20 hours): A (MIC's of 1.0 μg/mL or less = A) | MIC AECO 001 ([3]; Table 3): A (MIC's of less than 1.0 = A) | MIC ASAU 001 ([4]; Table 2): A (MIC's of 1.0 μg/mL or less = A) | MIC ASAU 001 ([4]; Table 3): A (MIC's of less than 1.0 = A) | MIC APAE 001 ([5]; Table 2): A (MIC's of 1.0 μg/mL or less = A) | MIC APAE 001 ([5]; Table 3): A (MIC's of less than 1.0 = A) | MIC ASPN 1027 ([6]; Table 2): B (MIC's of greater than 1.0 μg/mL to 8.0 μg/mL = B) | MIC ASPN 1027 ([6]; Table 3): A (MIC's of less than 1.0 = A) | MIC ASPN002 [7]: A (MIC's of less than 1.0 = A) | MIC ASAU002 [8]: A (MIC's of less than 1.0 = A) | MIC AECO002 [9]: A (MIC's of less than 1.0 = A) | MIC AABA 1065 ([10]; Table 2): A (MIC's of 1.0 μg/mL or less = A) | MIC AABA 1065 ([10]; Table 3): A (MIC's of less than 1.0 = A) | MIC AECO 066 ([11]; Table 2): B (MIC's of greater than 1.0 μg/mL to 8.0 μg/mL = B) | MIC AECO 066 ([11]; Table 3): C (MIC's of 2.0 μg/mL to 8.0 μg/mL = C) | MIC AABA1020 [12]: D (MIC's of greater than 8.0 μg/mL = D) | MIC ASPN1018 [13]: B (MIC's of 1.0 μg/mL to 2.0 μg/mL = B) | MIC APAE 054 ([14]; Table 2): C (MIC's of greater than 8.0 μg/mL = C) | MIC APAE 054 ([14]; Table 3): D (MIC's of greater than 8.0 μg/mL = D) | MIC AECO086 [15]: C (MIC's of 2.0 μg/mL to 8.0 μg/mL = C) | MIC ASPN 001 ([16]; Table 2): A (MIC's of 1.0 μg/mL or less = A) | MIC ASPN 001 ([16]; Table 3): A (MIC's of less than 1.0 = A) | MIC APAE002 [17]: A (MIC's of less than 1.0 = A) | MIC AABA 1009 [18]: B (MIC's of greater than 1.0 μg/mL to 8.0 μg/mL = B)

N[C@@H]1CCN2c3c(F)cc4c(=O)c(C(=O)O)cn(C5CC5)c4c3C=CC[C@H]12.O=C(O)C(F)(F)F [16/16, (7aR,8R)-8-Amino-4-cyclopropyl-12-fluoro-1-oxo-4,7,7a,8,9,10-hexahydro-1H-pyrrolo[1′,2′:1,7]azepino[2,3-h]quinoline-2-carboxylic acid trifluoroacetate]
MIC ASAU1033 [1]: B (MIC's of 1.0 μg/mL to 2.0 μg/mL = B) | MIC ASAU 1031 ([2]; Table 2): A (MIC's of 1.0 μg/mL or less = A) | MIC ASAU 1031 ([2]; Table 3): A (MIC's of less than 1.0 = A) | MIC AECO 001 ([3]; Table 2, 35° C., 20 hours): A (MIC's of 1.0 μg/mL or less = A) | MIC AECO 001 ([3]; Table 3): A (MIC's of less than 1.0 = A) | MIC ASAU 001 ([4]; Table 2): A (MIC's of 1.0 μg/mL or less = A) | MIC ASAU 001 ([4]; Table 3): A (MIC's of less than 1.0 = A) | MIC APAE 001 ([5]; Table 2): A (MIC's of 1.0 μg/mL or less = A) | MIC APAE 001 ([5]; Table 3): A (MIC's of less than 1.0 = A) | MIC ASPN 1027 ([6]; Table 2): B (MIC's of greater than 1.0 μg/mL to 8.0 μg/mL = B) | MIC ASPN 1027 ([6]; Table 3): A (MIC's of less than 1.0 = A) | MIC ASPN002 [7]: A (MIC's of less than 1.0 = A) | MIC ASAU002 [8]: A (MIC's of less than 1.0 = A) | MIC AECO002 [9]: A (MIC's of less than 1.0 = A) | MIC AABA 1065 ([10]; Table 2): A (MIC's of 1.0 μg/mL or less = A) | MIC AABA 1065 ([10]; Table 3): A (MIC's of less than 1.0 = A) | MIC AECO 066 ([11]; Table 2): B (MIC's of greater than 1.0 μg/mL to 8.0 μg/mL = B) | MIC AECO 066 ([11]; Table 3): C (MIC's of 2.0 μg/mL to 8.0 μg/mL = C) | MIC AABA1020 [12]: C (MIC's of 2.0 μg/mL to 8.0 μg/mL = C) | MIC ASPN1018 [13]: A (MIC's of less than 1.0 = A) | MIC APAE 054 ([14]; Table 2): C (MIC's of greater than 8.0 μg/mL = C) | MIC APAE 054 ([14]; Table 3): D (MIC's of greater than 8.0 μg/mL = D) | MIC AECO086 [15]: B (MIC's of 1.0 μg/mL to 2.0 μg/mL = B) | MIC ASPN 001 ([16]; Table 2): A (MIC's of 1.0 μg/mL or less = A) | MIC ASPN 001 ([16]; Table 3): A (MIC's of less than 1.0 = A) | MIC APAE002 [17]: A (MIC's of less than 1.0 = A) | MIC AABA 1009 [18]: B (MIC's of greater than 1.0 μg/mL to 8.0 μg/mL = B)

N[C@H]1C[C@H]2CCCc3c(c(F)cc4c(=O)c(C(=O)O)cn(C5CC5)c34)N2C1 [3/15]
MIC ([1]; Staphylococcus aureus): > 8 µg/mL | MIC ([2]; Table 2, read-out: MIC ASAU 1031): 1 to 8 µg/mL (≈ 2.69 to 21.5 µM) | MIC ([2]; Table 3): 2 to 8 µg/mL (≈ 5.38 to 21.5 µM) | MIC ([3]; Table 2, 35° C., 20 hours, read-out: MIC AECO 001): ≤ 1 µg/mL | MIC ([3]; Table 3): < 1 µg/mL | MIC ([4]; Table 2, read-out: MIC ASAU 001): ≤ 1 µg/mL | MIC ([4]; Table 3): < 1 µg/mL | MIC ([5]; Table 2, read-out: MIC APAE 001): 1 to 8 µg/mL (≈ 2.69 to 21.5 µM) | MIC ([5]; Table 3): < 1 µg/mL | MIC ([6]; Table 2, read-out: MIC ASPN 1027): 1 to 8 µg/mL (≈ 2.69 to 21.5 µM) | MIC ([6]; Table 3): 2 to 8 µg/mL (≈ 5.38 to 21.5 µM) | MIC ([7]; Streptococcus pneumoniae): < 1 µg/mL | MIC ([8]; Staphylococcus aureus): < 1 µg/mL | MIC ([9]; Escherichia coli): < 1 µg/mL | MIC ([10]; Table 2, read-out: MIC AABA 1065): ≤ 1 µg/mL | MIC ([10]; Table 3): < 1 µg/mL | MIC ([11]; Table 2, read-out: MIC AECO 066): 1 to 8 µg/mL (≈ 2.69 to 21.5 µM) | MIC ([11]; Table 3): 2 to 8 µg/mL (≈ 5.38 to 21.5 µM) | MIC ([12]; Acinetobacter baumannii): > 8 µg/mL | MIC ([13]; Streptococcus pneumoniae): 1 to 2 µg/mL (≈ 2.69 to 5.38 µM) | MIC ([14]; Table 2, read-out: MIC APAE 054): > 8 µg/mL | MIC ([14]; Table 3): > 8 µg/mL | MIC ([15]; Escherichia coli): 2 to 8 µg/mL (≈ 5.38 to 21.5 µM) | MIC ([16]; Table 2, read-out: MIC ASPN 001): ≤ 1 µg/mL | MIC ([16]; Table 3): < 1 µg/mL | MIC ([17]; Pseudomonas aeruginosa): < 1 µg/mL | MIC ([18]; Acinetobacter baumannii, Table 2, read-out: MIC AABA 1009): > 8 µg/mL
